Laboratory results as given in US5376637A, “Pharmaceutical preparation containing vasoactive intestinal polypeptide or its analogue” (Sanwa Kagaku Kenkyusho Co., Ltd., priority 1991, dated 1994).

Tests used:
PCA reaction = experiment: Passive cutaneous anaphylaxis test (PCA reaction); type: in vivo; conditions: male rat
Experimental: A rat was immunized with egg-albumin suspended in aluminum hydroxide gel in a conventional manner and a blood letting was carried out to obtain an antiserum rich in IgE.
A male rat was anesthetized with ethyl ether and hairs on back were sheared to intradermally inject by 0.1 ml of the antiserum solution (diluted to 5-folds in volume) described in Item (1), at both sides with a certain distance from a medial line on the back. After 72 hours, a mixed solution of egg albumin (5 mg/kg), 2% Evans blue and a test compound (L-Leu^17 ]-VIP-Hse or pure native type VIP) or disodium cromoglycate was injected into a vein, under anesthetized with pentobarbital. After 30 minutes from an occasion of PCA reaction, the experimental animal was killed and pealed-off the skin to obtain a piece of the skin dyed with the coloring matter.
The coloring matter was extracted in accordance with the method described by Katayama ["Microbio. Immunol.", Vol. 22, No. 2, pages 89 (1987)] and an amount thereof was measured at 620 nm in wave length to calculate an inhibition of the PCA reaction.

arterial pressure = experiment: Hypotensing action in anesthetized beagle dog; type: in vivo; conditions: injection in femoral artery, 0.02-10 μg/kg
Experimental: In a femoral artery of anesthetized beagle dog (body weight: about 10 kg), each of VIP analogues as Test Samples was injected in a dose of 0.02-10 μg/kg and measured an arterial pressure to prepare a chart showing a relation between the dose and change in blood pressure and check an amount of dose which shall cause a reduction of 15 mmHg in blood pressure.

[1] = dose 0.01 mg/kg injected into a vein
[2] = dose 0.1 mg/kg injected into a vein
[3] = dose 1.0 mg/kg injected into a vein

O=C([O-])c1cc(=O)c2c(OCC(O)COc3cccc4oc(C(=O)[O-])cc(=O)c34)cccc2o1.[Na+].[Na+] [Disodium cromoglycate]
Inhibition (%) of PCA reaction (PCA reaction; [1]): 5%
Inhibition (%) of PCA reaction (PCA reaction; [2]): 28%
Inhibition (%) of PCA reaction (PCA reaction; [3]): 31%

CC[C@H](C)[C@H](NC(=O)[C@H](CO)NC(=O)[C@H](CC(N)=O)NC(=O)[C@H](CC(C)C)NC(=O)[C@H](Cc1ccc(O)cc1)NC(=O)[C@H](CCCCN)NC(=O)[C@H](CCCCN)NC(=O)[C@@H](NC(=O)[C@H](C)NC(=O)[C@H](CCSC)NC(=O)[C@H](CCC(N)=O)NC(=O)[C@H](CCCCN)NC(=O)[C@H](CCCNC(=N)N)NC(=O)[C@H](CC(C)C)NC(=O)[C@H](CCCNC(=N)N)NC(=O)[C@@H](NC(=O)[C@H](Cc1ccc(O)cc1)NC(=O)[C@H](CC(N)=O)NC(=O)[C@H](CC(=O)O)NC(=O)[C@@H](NC(=O)[C@H](Cc1ccccc1)NC(=O)[C@@H](NC(=O)[C@H](C)NC(=O)[C@H](CC(=O)O)NC(=O)[C@H](CO)NC(=O)[C@@H](N)Cc1c[nH]cn1)C(C)C)[C@@H](C)O)[C@@H](C)O)C(C)C)C(=O)N[C@@H](CC(C)C)C(=O)N[C@@H](CC(N)=O)C(N)=O [Native type VIP, vasoactive intestinal polypeptide]
amount of dose causing a reduction of 15 mmHg in blood pressure, relative value (native type VIP = 100%) (arterial pressure): 100%
Inhibition (%) of PCA reaction (PCA reaction; [1]): 23%
Inhibition (%) of PCA reaction (PCA reaction; [2]): 72%
Inhibition (%) of PCA reaction (PCA reaction; [3]): 67%
